Results on one cell line are retold here after the supplement of paper PMC10307832.

Common to all, as to test: relative viability (nuclei count vs DMSO), 5 days (fraction); higher = more cells survive
Compound in the experiment “RU-SKI 43 + Olaparib”: CC[C@@H](C)CNCC(=O)N1CCC2=C([C@@H]1COC3=CC=CC(=C3)C)C=CS2 [RU-SKI 43] + O=C(c1cc(Cc2n[nH]c(=O)c3ccccc23)ccc1F)N1CCN(C(=O)C2CC2)CC1 [Olaparib] (partner 8 µM)
An outline of the steps:
(§1)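 Lung cancer cell lines were pin-tool dosed in 1536-well plates on the day after seeding, with either a lone drug or a fixed anchor-drug dose plus five library-drug doses (not always all listed) in √10 steps. Nuclei were counted on 4× images after 5 days. Relative viability is the ratio of treated-well to vehicle-well nuclei counts, with each value a median of duplicate plates.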

Compound in the experiment “Irinotecan + Phenformin”: CCc1c2c(nc3ccc(OC(=O)N4CCC(N5CCCCC5)CC4)cc13)-c1cc3c(c(=O)n1C2)COC(=O)[C@]3(O)CC [Irinotecan] + N=C(N)NC(=N)NCCc1ccccc1 [Phenformin] (partner 250 µM)
An outline of the steps: as §1

Compound in the experiment “MK-8033 + Palbociclib”: Cn1cc(-c2cnc3ccc4ccc(CS(=O)(=O)NCc5ccccn5)cc4c(=O)c3c2)cn1 [MK-8033] + CC(=O)c1c(C)c2cnc(Nc3ccc(N4CCNCC4)cn3)nc2n(C2CCCC2)c1=O [Palbociclib] (partner 0.5 µM)
An outline of the steps:
as §1

Compound in the experiment “MK-8033 + Olaparib”: Cn1cc(-c2cnc3ccc4ccc(CS(=O)(=O)NCc5ccccn5)cc4c(=O)c3c2)cn1 [MK-8033] + O=C(c1cc(Cc2n[nH]c(=O)c3ccccc23)ccc1F)N1CCN(C(=O)C2CC2)CC1 [Olaparib] (partner 8 µM)
An outline of the steps: as §1

With UMC-11, the relative viability in the experiment with RU-SKI 43 + Olaparib (first compound 0.1 µM) was determined as 0.397; in the experiment with RU-SKI 43 + Olaparib (first compound 0.3162 µM) it was 0.418; with RU-SKI 43 + Olaparib (first compound 1 µM), 0.399; with RU-SKI 43 + Olaparib (first compound 3.162 µM), 0.383; with RU-SKI 43 + Olaparib (first compound 10 µM), 0.273; in the experiment with Irinotecan + Phenformin (first compound 0.6325 µM), 0.294. In addition, the relative viability with Irinotecan + Phenformin (first compound 2 µM) worked out at 0.235; with Irinotecan + Phenformin (first compound 6.325 µM), 0.196; in the experiment with Irinotecan + Phenformin (first compound 20 µM), 0.189; with MK-8033 + Palbociclib (first compound 0.02 µM), 0.329; in the experiment with MK-8033 + Palbociclib (first compound 0.06325 µM), 0.337; with MK-8033 + Palbociclib (first compound 0.2 µM) it was 0.3. Further, the relative viability with MK-8033 + Palbociclib (first compound 0.6325 µM) came to 0.35; in the experiment with MK-8033 + Palbociclib (first compound 2 µM), 0.343; with MK-8033 + Olaparib (first compound 0.02 µM) it was 0.449; with MK-8033 + Olaparib (first compound 0.06325 µM) it was 0.375; in the experiment with MK-8033 + Olaparib (first compound 0.2 µM), 0.353; in the experiment with MK-8033 + Olaparib (first compound 0.6325 µM) it was 0.405. Moreover, the relative viability in the experiment with MK-8033 + Olaparib (first compound 2 µM) turned out to be 0.37.
